Source: patent US20100179122A1 (priority 2005, published 2010)
Like-named read-outs stand apart in the source and are kept apart here.

System: acute HIV infection of T-lymphoid cells
Assay: Assay for inhibition of HIV replication (spread assay)
Type: cell-based
Conditions: read-out: IC95, spread assay
Method: An assay for the inhibition of acute HIV infection of T-lymphoid cells (alternatively referred to herein as the “spread assay”) was conducted in accordance with Vacca, J. P. et al., Proc. Natl. Acad. Sci. USA 1994, 91: 4096. […] The compounds set forth in the other Examples were not tested in the spread assay.

[1] = Human immunodeficiency virus 1, inhibition of acute HIV infection of T-lymphoid cells

In the case of `Cc1cccc(CNC(=O)Nc2[nH]c3ccc(Cl)cc3c2S(=O)(=O)c2ccccc2)c1` [Example 43, N-[5-chloro-3-(phenylsulfonyl)-1H-indol-2-yl]-N′-(3-methylbenzyl)urea], the IC95 [1] is reported as less than 1000 nM.
With `O=C(Nc1ccccc1C(F)(F)F)Nc1[nH]c2ccc(Cl)cc2c1S(=O)(=O)c1ccccc1` [Example 41, N-[5-chloro-3-(phenylsulfonyl)-1H-indol-2-yl]-N′-[2-(trifluoromethyl)phenyl]urea] the IC95 [1] was less than 1000 nM.
`CC(NCC(=O)Nc1[nH]c2ccc(Cl)cc2c1S(=O)(=O)c1ccccc1)c1ccccc1` (stereo not shown) [Example 59, 2-{[5-chloro-3-(phenylsulfonyl)-1H-indol-2-yl]amino}-2-oxo-N-(1-phenylethyl)ethanamine] gave an IC95 [1] of less than 1000 nM.
`O=C(CN1CCC(c2ccccn2)C1)Nc1[nH]c2ccc(Cl)cc2c1S(=O)(=O)c1ccccc1` (stereo not shown) [Example 56, N-[5-chloro-3-(phenylsulfonyl)-1H-indol-2-yl]-2-(3-pyridin-2-ylpyrrolidin-1-yl)acetamide] showed an IC95 [1] of less than 1000 nM.
`O=C(COc1ccccc1)Nc1[nH]c2ccc(Cl)cc2c1S(=O)(=O)c1ccccc1` [Example 65, N-[5-chloro-3-(phenylsulfonyl)-1H-indol-2-yl]-2-phenoxyacetamide] gave an IC95 [1] of less than 1000 nM.
In the case of `O=C(NCc1cccc(F)c1)Nc1[nH]c2ccc(Cl)cc2c1S(=O)(=O)c1ccccc1` [Example 50, N-[5-chloro-3-(phenylsulfonyl)-1H-indol-2-yl]-N′-(3-fluorobenzyl)urea], the IC95 [1] is reported as less than 1000 nM.
For `Cc1ccoc1C(=O)Nc1[nH]c2ccc(Cl)cc2c1S(=O)(=O)c1ccccc1` [Example 24, N-[5-chloro-3-(phenylsulfonyl)-1H-indol-2-yl]-3-methyl-2-furamide], the IC95 [1] was less than 1000 nM.
For `O=C(Nc1[nH]c2ccc(Cl)cc2c1S(=O)(=O)c1ccccc1)C1CCCC1` [Example 47, N-[5-chloro-3-(phenylsulfonyl)-1H-indol-2-yl]cyclopentanecarboxamide], the IC95 [1] was less than 1000 nM.
`O=C(Nc1[nH]c2ccc(Cl)cc2c1S(=O)(=O)c1ccccc1)c1ccc(F)cc1F` [Example 18, N-[5-chloro-3-(phenylsulfonyl)-1H-indol-2-yl]-2,4-difluorobenzamide] gave an IC95 [1] of less than 1000 nM.
Work on `O=C(Nc1[nH]c2ccc(Cl)cc2c1S(=O)(=O)c1ccccc1)c1cccc(F)c1` [Example 25, N-[5-chloro-3-(phenylsulfonyl)-1H-indol-2-yl]-3-fluorobenzamide] yielded an IC95 [1] of less than 1000 nM.
For `O=C(Nc1[nH]c2ccc(Cl)cc2c1S(=O)(=O)c1ccccc1)NC1CCCC1` [Example 44, N-[5-chloro-3-(phenylsulfonyl)-1H-indol-2-yl]-N′-cyclopentylurea], the IC95 [1] was less than 1000 nM.
`O=C(Nc1ccccc1)Nc1[nH]c2ccc(Cl)cc2c1S(=O)(=O)c1ccccc1` [Example 35, N-[5-chloro-3-(phenylsulfonyl)-1H-indol-2-yl]-N′-phenylurea] showed an IC95 [1] of less than 1000 nM.
`O=C(Nc1[nH]c2ccc(Cl)cc2c1S(=O)(=O)c1ccccc1)c1ccncc1` [Example 20, N-[5-chloro-3-(phenylsulfonyl)-1H-indol-2-yl]isonicotinamide] showed an IC95 [1] of less than 1000 nM.
`O=C(CNC1CC1)Nc1[nH]c2ccc(Cl)cc2c1S(=O)(=O)c1ccccc1` [Example 12, N^1-[5-chloro-3-(phenylsulfonyl)-1H-indol-2-yl]-N^2-cyclopropylglycinamide] showed an IC95 [1] of less than 1000 nM.
For `CS(=O)(=O)N1CCN(CC(=O)Nc2[nH]c3ccc(Cl)cc3c2S(=O)(=O)c2ccccc2)CC1` [Example 53, N-[5-chloro-3-(phenylsulfonyl)-1H-indol-2-yl]-2-[4-(methylsulfonyl)piperazin-1-yl]acetamide], the IC95 [1] was less than 1000 nM.
Compound `O=C(COCc1ccccc1)Nc1[nH]c2ccc(Cl)cc2c1S(=O)(=O)c1ccccc1` [Example 6, 2-(benzyloxy)-N-[5-chloro-3-(phenylsulfonyl)-1H-indol-2-yl]acetamide] has an IC95 [1] of less than 1000 nM.
In the case of `CC1(CNCC(=O)Nc2[nH]c3ccc(Cl)cc3c2S(=O)(=O)c2ccccc2)COC1` [Example 45, N^1-[5-chloro-3-(phenylsulfonyl)-1H-indol-2-yl]-N^2-[(3-methyloxetan-3-yl)methyl]glycinamide], the IC95 [1] is reported as less than 1000 nM.
In the case of `CC(C)NC(=O)Nc1[nH]c2ccc(Cl)cc2c1S(=O)(=O)c1ccccc1` [Example 62, N-[5-chloro-3-(phenylsulfonyl)-1H-indol-2-yl]-N′-isopropylurea], the IC95 [1] is reported as less than 1000 nM.
`O=C(NCCc1ccccc1)Nc1[nH]c2ccc(Cl)cc2c1S(=O)(=O)c1ccccc1` [Example 49, N-[5-chloro-3-(phenylsulfonyl)-1H-indol-2-yl]-N′-(2-phenylethyl)urea] showed an IC95 [1] of 1000 to 10000 nM.
Compound `O=C(NCc1c(F)cccc1Cl)Nc1[nH]c2ccc(Br)cc2c1S(=O)(=O)N1CCCC1` [Example 95, N-[5-bromo-3-(pyrrolidin-1-ylsulfonyl)-1H-indol-2-yl]-N′-(2-chloro-6-fluorobenzyl)urea] has an IC95 [1] of less than 1000 nM.
Compound `O=C(NCc1ccc(F)cc1)Nc1[nH]c2ccc(Cl)cc2c1S(=O)(=O)c1ccccc1` [Example 52, N-[5-chloro-3-(phenylsulfonyl)-1H-indol-2-yl]-N′-(4-fluorobenzyl)urea] has an IC95 [1] of less than 1000 nM.
`O=C(Nc1[nH]c2ccc(Cl)cc2c1S(=O)(=O)c1ccccc1)NC1CC1c1ccccc1` (stereo not shown) [Example 58, N-[5-chloro-3-(phenylsulfonyl)-1H-indol-2-yl]-N′-(2-phenylcyclopropyl)urea] gave an IC95 [1] of less than 1000 nM.
`O=C(Nc1[nH]c2ccc(Br)cc2c1S(=O)(=O)N1CCCC1)N1CCC1` [Example 96, N-[5-bromo-3-(pyrrolidin-1-ylsulfonyl)-1H-indol-2-yl]azetidine-1-carboxamide] gave an IC95 (Human immunodeficiency virus 1, T-lymphoid) of 1000 to 10000 nM.
With `O=C(Cc1ccc(F)cc1)Nc1[nH]c2ccc(Cl)cc2c1S(=O)(=O)c1ccccc1` [Example 16, N-[5-chloro-3-(phenylsulfonyl)-1H-indol-2-yl]-2-(4-fluorophenyl)acetamide] the IC95 [1] was less than 1000 nM.
`O=C(Nc1[nH]c2ccc(Cl)cc2c1S(=O)(=O)c1ccccc1)c1ccccc1F` [Example 19, N-[5-chloro-3-(phenylsulfonyl)-1H-indol-2-yl]-2-fluorobenzamide] was tested, and the IC95 [1] was less than 1000 nM.
`CCC(C)NC(=O)Nc1[nH]c2ccc(Cl)cc2c1S(=O)(=O)c1ccccc1` (stereo not shown) [Example 46, N-(sec-butyl)-N′-[5-chloro-3-(phenylsulfonyl)-1H-indol-2-yl]urea] was tested, and the IC95 [1] was less than 1000 nM.
`O=C(Nc1[nH]c2ccc(Cl)cc2c1S(=O)(=O)c1ccccc1)c1ccccc1` [Example 28, N-[5-chloro-3-(phenylsulfonyl)-1H-indol-2-yl]benzamide] gave an IC95 [1] of less than 1000 nM.
Work on `COc1cccc(CNCC(=O)Nc2[nH]c3ccc(Cl)cc3c2S(=O)(=O)c2ccccc2)c1` [Example 51, N^1-[5-chloro-3-(phenylsulfonyl)-1H-indol-2-yl]-N^2-(3-methoxybenzyl)glycinamide] yielded an IC95 [1] of less than 1000 nM.
Work on `O=C(Nc1[nH]c2ccc(Cl)cc2c1S(=O)(=O)c1ccccc1)NC1CCCCC1` [Example 57, N-[5-chloro-3-(phenylsulfonyl)-1H-indol-2-yl]-N′-cyclohexylurea] yielded an IC95 [1] of less than 1000 nM.
`COCC(=O)Nc1[nH]c2ccc(Cl)cc2c1S(=O)(=O)c1ccccc1` [Example 34, N-[5-chloro-3-(phenylsulfonyl)-1H-indol-2-yl]-2-methoxyacetamide] gave an IC95 [1] of less than 1000 nM.
`O=C(Nc1cccc(F)c1)Nc1[nH]c2ccc(Cl)cc2c1S(=O)(=O)c1ccccc1` [Example 29, N-[5-chloro-3-(phenylsulfonyl)-1H-indol-2-yl]-N′-(3-fluorophenyl)urea] gave an IC95 [1] of less than 1000 nM.
